From patent US9815854B2, “3-(3H-imidazo[4,5-B]pyridin-2-yl)-1H-pyrazolo[3,4-C]pyridine and therapeutic uses thereof” (Samumed, LLC, priority 2014, dated 2017) come the findings set out here.

In general, EC50 refers to the concentration giving half of the maximal effect. Broadly, the IC50 is the point on the concentration scale where inhibition reaches its midpoint.

In test [1] the test system is primary human fibroblasts derived from IPF patients (LL29 cells). Put plainly: Inhibition of the fibrotic process in TGF-β1-treated primary human fibroblasts from IPF patients (αSMA staining). Particulars: Fibroblast, 96 h, TGF-β1 20 ng/mL, 4 days, read-out: Inhibition of fibrosis EC50. The test is classed as cell-based. The source says: The above synthesized compounds were screened using primary human fibroblasts (derived from IPF patients) treated with TGF-β1 to determine their ability to inhibit the fibrotic process.
Human Fibroblast Celt Culture: Primary human fibroblasts derived from IPF patients (LL29 cells) [^1Xiaoqiu Liu, et.al., “Fibrotic Luna Fibroblasts Show Blunted Inhibition by cAMP Due to Deficient cAMP Response Element-Binding Protein Phosphorylation”, Journal of Pharmacology and Experimental Therapeutics (2005), 315(2), 678-687; ^2Watts, K. L., et.al., “RhoA signaling modulates cyclin D1 expression in human lung fibroblasts; implications for idiopathic pulmonary fibrosis”, Respiratory Research (2006), 7(1), 88] were obtained from American Type Culture Collection (ATCC) and expanded in F12 medium supplemented with 15% Fetal Bovine Serum and Penicillin/Streptomycin.
Compound Screening: Each compound was dissolved in DMSO as a 10 mM stock and used to prepare compound source plates. Serial dilution (1:2, 11-point dose-response curves from 10 μM to […]) and compound transfer was performed using the ECHO 550 (Lahcyte, Sunnyvale, Calif.) into 384-well clear bottom assay plates (Greiner Bio-One) with appropriate DMSO backfill fhr a final DMSO concentration of 0.1%. LL29 cells were plated at 1,500 cells/well in 80 μl/well F12 medium supplemented with 1% Fetal Bovine Serum. One hour after addition of the cells. TGF-β1 (Peprotech; 20 ng/mL) was added to the plates to induce fibrosis (ref. 1 and 2 above), Wells treated with TGF-β1 and containing DMSO were used as controls. Cells were incubated at 37° C. and 5% CO2 for 4 days. Following incubation for 4 days, SYTOX green nucleic acid stain (Life Technologies [Thermo Fisher Scientific]) was added to the wells at a final concentration of 1 uM and incubated at room temperature for 30 min. Cells were then fixed using 4% formaldehyde (Electron Microscopy Sciences), washed 3 times with PBS followed by blocking and penneabilization using 3% Bovine Serum Albumin (BSA; Sigma) and 0.3% Triton X-100 (Sigma) in PBS. Cells were then stained with antibody specific to α-smooth muscle actin (αSMA; Abeam) (ref 1 and 2 above) in 3% Bovine Serum Albumin (BSA; Sigma) and 0.3% Triton X-100 (Sigma) in PBS, and incubated overnight at 4° C. Cells were then washed 3 times with PBS, followed by incubation with Alexa Flor-647 conjugated secondary antibody (Life Technologies [Thermo Fisher Scientific]) and DAPI at room temperature for 1 hour, Cells were then washed 3 times with PBS and plates were sealed for imaging. αSMA staining was imaged by excitation at 630 nm and emission at 665 nm and quantified using the Compartmental Analysis program on the CellInsight CX5 (Thermo Scientific). Dead or apoptotic cells were excluded from analysis based on positive SYTOX green staining. % of total cells positive for αSMA were counted in each well and normalized to the average of 11 wells treated with TGF-β1 on the same plate using Dotmatics' Studies Software. The normalized averages (fold change over untreated) of 3 replicate wells for each compound concentration were used to create dose-responses curves and EC50 values were calculated using non-linear regression curve fit in the Dotmatics' Studies Software. The EC50 values are reported.

Test [2] concerns Wnt activity (Sp5-Luc reporter, TCF/LEF binding sites) in SW480 colon carcinoma cells. Put plainly: Sp5-Luc Wnt reporter gene screening assay in SW480 colon carcinoma cells. The format is cell-based, human. Particulars: Homo sapiens. The source says:
The screening assay for Wnt activity is described as follows. Reporter cell lines can be generated by stably transducing cancer cell lines (e.g., colon cancer) or primary cells (e.g., IEC-6 intestinal cells) with a lentiviral construct that includes a Wnt-responsive promoter driving expression of the firefly luciferase gene.
SW480 colon carcinoma cells were transduced with a lentiviral vector expressing luciferase with a human Sp5 promoter consisting of a sequence of eight TCF/LEF binding sites. SW480 cells stably expressing the Sp5-Luc reporter gene and a hygromycin resistance gene were selected by treatment with 150 μg/ml of hygroinycin for 7 days. These stably transduced SW480 cells were expanded in cell culture and used for all further screening activities. For Sp5-Luc reporter gene assays, the cells were plated at 10,000 cells/well in 96-well plates with growth medium containing 10% fetal calf serum and incubated overnight at 37° C. and 5% CO2. Each compound was dissolved in DMSO as a 10 mM stock in standard j-vials and used to prepare compound source plates in dose-response format with 3-fold serial dilutions and a 10 mM top concentration. Compound transfer from serially diluted source plates to assay plates containing the cells was accomplished using a pintool (Multimek 96, Beckman equipped with V&P Scientific FP1S50H pins) based liquid handling protocol. This protocol used a slotted pin to transfer 50 nl of compound from a source plate well to an assay plate well containing 50 μl of cells in growth medium. […] Control wells received 50 nl of DMSO treatment for nommlization and calculating IC50 values. The treated cells were incubated at 37° C. and 5% CO2 for an additional forty-two hours. Following incubation, the growth medium was removed and 50 μl of BrightGlo luminescence reagent (Promega) was added to each well of the 96-well assay plates. The plates were placed on an orbital shaker for 5 min and then luminescence was quantified on the Victor3 (Perkin Elmer) plate reader. Readings were normalized to DMSO only treated cells, and normalized activities were utilized for IC50 calculations using the dose-response log (inhibitor) vs. response—variable slope (four parameters) nonlinear regression feature available in GraphPad Prism 5.0 or 6.0.
(Reporter assays use an easily measured gene product as a stand-in for the process of interest.)

With `c1cncc(-c2cc3c(-c4nc5c(-c6cccnc6)ccnc5[nH]4)n[nH]c3cn2)c1` [Compound 82, 5-(Pyridin-3-7-(pyridin-3-yl)-3H-imidazo[4,5-b]pyridin-2-yl)-1H-pyrazolo[3,4-c]pyridine], the EC50 in test [1] is no more than 9 nM. In test [2], this molecule had a concentration for half-maximal inhibition (IC50) greater than 10000 nM.

Consider `CC(C)C(=O)Nc1cncc(-c2cc3c(-c4nc5c(-c6cccnc6)ccnc5[nH]4)n[nH]c3cn2)c1` [Compound 87, N-(5-(3-(7-(Pyridin-3-yl)-3 H-imidazo[4,5-b]pyridin-2-yl)-1H-pyrazolo[3,4-c]pyridin-5-yl)pyridin-3-yl)isobutyramide], for which the EC50 in test [1] was no less than 9990 nM. Besides, the IC50 in test [2] is greater than 10000 nM.

For the molecule `CC(C)Nc1cncc(-c2cc3c(-c4nc5c(-c6cccnc6)ccnc5[nH]4)n[nH]c3cn2)c1` [Compound 90, N-Isopropyl-5-(3-(7-(pyridin-3-yl)-3H-imidazo[4,5-b]pyridin-2-yl)-1H-pyrazolo[3,4-c]pyridin-5-yl)pyridin-3-amine], the EC50 in test [1] was no less than 9990 nM. Further, the IC50 in test [2] is greater than 10000 nM.

As to `c1ccc(CNCc2cncc(-c3cc4c(-c5nc6c(-c7cccnc7)ccnc6[nH]5)n[nH]c4cn3)c2)cc1` [Compound 101], in test [1], the EC50 is no more than 9 nM. The IC50 in test [2] is greater than 10000 nM.

Turning to `CCNCc1cncc(-c2cc3c(-c4nc5c(-c6ccccn6)ccnc5[nH]4)n[nH]c3cn2)c1` [Compound 136, N-((5-(3-(7-(Pyridin-2-yl)-3H-imidazo[4,5-b]pyridin-2-yl)-1H-pyrazolo[3,4-c]pyridin-5-yl)pyridin-3-yl)methyl)ethanamine], in test [1], the EC50 is no more than 9 nM. For the same molecule, in test [2], the IC50 was found to be 745 nM.

Turning to `O=C(Nc1cncc(-c2cc3c(-c4nc5c(-c6ccccn6)ccnc5[nH]4)n[nH]c3cn2)c1)c1ccccc1` [Compound 141, N-(5-(3-(7-(Pyridin-2-yl)-3H-imidazo[4,5-b]pyridin-2-yl)-1H-pyrazolo[3,4-c]pyridin-5-yl)pyridin-3-yl)benzamide], the EC50 in test [1] was no less than 9990 nM. In test [2], the IC50 is greater than 10000 nM.

As for `CCCCC(=O)Nc1cncc(-c2cc3c(-c4nc5c(-c6ccccn6)ccnc5[nH]4)n[nH]c3cn2)c1` [Compound 148, N-(5-(3-(7-(Pyridin-2-yl)-3H-imidazo[4,5-b]pyridin-2-yl)-1H-pyrazolo[3,4-c]pyridin-5-yl)pyridin-3-yl)pentanamide], in test [1], the EC50 is no more than 9 nM. In test [2], this molecule showed an IC50 greater than 10000 nM.

Consider `c1ccc(-c2ccnc3[nH]c(-c4n[nH]c5cnc(-c6cncc(CNCC7CCCC7)c6)cc45)nc23)nc1` [Compound 154, 1-Cyclopentyl-N-((5-(3-(7-(pyridin-2-yl)-3H-imidazo[4,5-b]pyridin-2-yl)-1H-pyrazolo[3,4-c]pyridin-5-yl)pyridin-3-yl)methyl)methanamine], for which the EC50 in test [1] is 596 nM. Moreover, the IC50 in test [2] worked out at 464 nM.

On to `CCC(=O)Nc1cncc(-c2cc3c(-c4nc5c(N6CCCCC6)ccnc5[nH]4)n[nH]c3cn2)c1` [Compound 157], for which the EC50 in test [1] is no less than 9990 nM. The molecule further yielded a 50% inhibitory concentration (IC50) in test [2] greater than 10000 nM.

Regarding `CC(C)(C)C(=O)Nc1cncc(-c2cc3c(-c4nc5c(N6CCCCC6)ccnc5[nH]4)n[nH]c3cn2)c1` [Compound 164, N-(5-(3-(7-(Piperidin-1-yl)-3H-imidazo[4,5-b]pyridin-2-yl)-1H-pyrazolo[3,4-c]pyridin-5-yl)pyridin-3-yl)pivalamide], the EC50 in test [1] was no more than 9 nM. The IC50 in test [2] was found to be 84.4 nM.

In the case of `CN(C)Cc1cncc(-c2cc3c(-c4nc5c(N6CCCCC6)ccnc5[nH]4)n[nH]c3cn2)c1` [Compound 169, N,N-Dimethyl-1-(5-(3-(7-(piperidin-1-yl)-3H-imidazo[4,5-b]pyridin-2-yl)-1H-pyrazolo[3,4-c]pyridin-5-yl)pyridin-3-yl)methanamine], the EC50 in test [1] was 481 nM. Besides, the IC50 in test [2] came out at 253 nM.

With `CCCC(=O)Nc1cncc(-c2cc3c(-c4nc5c(N6CCCCC6)ccnc5[nH]4)n[nH]c3cn2)c1` [Compound 173, N-(5-(3-(7-(Piperidin-1-yl)-3H-imidazo[4,5-b]pyridin-2-yl)-1H-pyrazolo[3,4-c]pyridin-5-yl)pyridin-3-yl)butyramide], the EC50 in test [1] worked out at 18 nM. This molecule came in with an IC50 in test [2] of 169 nM.

In the case of `O=C(Nc1cncc(-c2cc3c(-c4nc5c(N6CCCCC6)ccnc5[nH]4)n[nH]c3cn2)c1)C1CC1` [Compound 175, N-(5-(3-(7-(Piperidin-1-yl)-3H-imidazo[4,5-b]pyridin-2-yl)-1H-pyrazolo[3,4-c]pyridin-5-yl)pyridin-3-yl)cyclopropanecarboxamide], the concentration for a half-maximal effect (EC50) in test [1] is 3930 nM. In test [2], the concentration for half-maximal inhibition (IC50) came to 155 nM.

As for `Cc1cn(-c2ccnc3[nH]c(-c4n[nH]c5cnc(-c6cncc(CN7CCCC7)c6)cc45)nc23)cn1` [Compound 196], the EC50 in test [1] was no less than 9990 nM. Besides, the IC50 in test [2] is greater than 10000 nM.

Turning to `CN1CCN(c2ccnc3[nH]c(-c4n[nH]c5cnc(-c6cncc(N)c6)cc45)nc23)CC1` [Compound 211, 5-(3-(7-(4-Methylpiperazin-1)-3H-imidazo[4,5-b]pyridin-2-yl)-1H-pyrazolo[3,4-c]pyridin-5-yl)pyridin-3-amine], the EC50 in test [1] was no less than 9990 nM. The same molecule registered an IC50 in test [2] of 1040 nM.

Turning to `CC(C)C(=O)Nc1cncc(-c2cc3c(-c4nc5c(N6CCN(C)CC6)ccnc5[nH]4)n[nH]c3cn2)c1` [Compound 217, N-(5-(3-(7-(4-Methylpiperazin-1-yl)-3H-imidazo[4,5-b]pyridin-2-yl)1H-pyrazolo[3,4-c]pyridin-5-yl)pyridin-3-yl)isobutyramide], in test [1], the EC50 is no less than 9990 nM. In test [2], this molecule gave a 50% inhibitory concentration (IC50) greater than 10000 nM.

Take `CN1CCN(c2ccnc3[nH]c(-c4n[nH]c5cnc(-c6cncc(CN7CCCCC7)c6)cc45)nc23)CC1` [Compound 223, 3-(7-(4-Methylpiperazin-1-yl)-3H-imidazo[4,5-b]pyridin-2-yl)-5-(5-(piperidin-1-ylmethyl)pyridin-3-yl)-1H-pyrazolo[3,4-c]pyridine]: the concentration giving a half-maximal response (EC50) in test [1] is no more than 9 nM. For the same molecule, the IC50 in test [2] is 5080 nM.

For the molecule `CN1CCN(c2ccnc3[nH]c(-c4n[nH]c5cnc(-c6cncc(NC(=O)C7CCCC7)c6)cc45)nc23)CC1` [Compound 229, N-(5-(3-(7-(4-Methylpiperazin-1-yl)-3H-imidazo[4,5-b]pyridin-2-yl)-1H-pyrazolo[3,4-c]pyridin-5-yl)pyridin-3-yl)cyclopentanecarboxamide], in test [1], the EC50 is no more than 9 nM. The molecule also had a concentration for half-maximal inhibition (IC50) in test [2] greater than 10000 nM.

Take `CN1CCN(c2ccnc3[nH]c(-c4n[nH]c5cnc(-c6cncnc6)cc45)nc23)CC1` [Compound 234, 3-(7-(4-Methylpiperazin-1-yl)-3H-imidazo[4,5-b]pyridin-2-yl)-5-(pyrimidin-5-yl)-1H-pyrazolo[3,4-c]pyridine]: the EC50 in test [1] is no less than 9990 nM. In addition, in test [2], the IC50 was greater than 10000 nM.
